The values that follow come from PubChem BioAssay (NCI).

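48-hour exposure; five concentrations; linearly interpolated endpoints. TGI is the concentration that stops growth completely.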 A value given as a limit tells only on which side of the number the result lay.

Some test systems named below: MDA-N; CCRF-CEM leukemia; M14 melanoma; HCC-2998 colon; MDA-MB-231 breast; MOLT-4 leukemia; UO-31 renal; BT-549 breast; OVCAR-3 ovarian; IGROV1 ovarian; CAKI-1 renal; SF-539 CNS.
What all share (assay): growth of human tumour cells (NCI), 48 h

For the compound `O=C(C[N+]12CN3CN(CN(C3)C1)C2)c1ccc(-c2ccccc2)cc1`, the TGI came out at 42.8 µM with MDA-N; 5.37 µM in the assay with CCRF-CEM leukemia; 49.5 µM in the assay with M14 melanoma; 28.9 µM in the assay with HCC-2998 colon; 34.3 µM with MDA-MB-231 breast; 42.9 µM in the assay with MOLT-4 leukemia. Further, the TGI in the assay with UO-31 renal is 61.8 µM; in the assay on BT-549 breast, 71.7 µM; in the assay with OVCAR-3 ovarian it was 78.6 µM; in the assay on IGROV1 ovarian, 66.5 µM; in the assay on CAKI-1 renal, over 100 µM.
As to `O=C(O)CN1C(=O)c2ccc(NC(=O)C(=O)O)cc2S1(=O)=O`, the TGI with MDA-N, in the assay on CCRF-CEM leukemia, with M14 melanoma, in the assay with HCC-2998 colon, with MDA-MB-231 breast and with MOLT-4 leukemia was over 100 µM throughout. Further, the TGI with UO-31 renal, with BT-549 breast, in the assay on IGROV1 ovarian and in the assay on CAKI-1 renal was over 100 µM each time.
Turning to `CN(CCN)[C@H](CSSC[C@@H](c1ccccc1O)N(C)CCN)c1ccccc1O`, the TGI in the assay with MDA-N worked out at 24.6 µM; in the assay on SF-539 CNS, 31.9 µM; with CCRF-CEM leukemia, 10.5 µM; in the assay with M14 melanoma, 33.5 µM; in the assay on HCC-2998 colon, 25.6 µM; in the assay with MDA-MB-231 breast, 26.5 µM. For the same compound, the TGI in the assay with MOLT-4 leukemia came to 23 µM; with UO-31 renal it was 23.9 µM; in the assay with BT-549 breast, 25 µM; with OVCAR-3 ovarian, 28.6 µM; with CAKI-1 renal, 25.8 µM.
As to `Nc1cccc(-c2cc(=O)c3cc4c(cc3[nH]2)OCO4)c1`, the TGI with MDA-N was 0.474 µM; with SF-539 CNS, 2.79 µM; in the assay on CCRF-CEM leukemia, over 100 µM; in the assay on M14 melanoma it was over 79.6 µM; in the assay with HCC-2998 colon, 26.5 µM; in the assay on MDA-MB-231 breast, 8.64 µM. Also, the TGI with MOLT-4 leukemia is over 100 µM; in the assay on UO-31 renal, over 75.9 µM; in the assay with BT-549 breast, over 100 µM; in the assay on CAKI-1 renal, over 100 µM.
As for `COc1cc2c(c(OC)c1OC)C(=O)c1c(O)cc(C)c(OC)c1C2=O`, the TGI in the assay with MDA-N, in the assay with SF-539 CNS, with M14 melanoma, in the assay with HCC-2998 colon, in the assay with MDA-MB-231 breast and in the assay on MOLT-4 leukemia was over 100 µM throughout. Moreover, the TGI with UO-31 renal, in the assay on BT-549 breast, in the assay on OVCAR-3 ovarian, in the assay on IGROV1 ovarian and in the assay on CAKI-1 renal was over 100 µM throughout.
In the case of `COC(=O)/C=C(C)/C=C\COC1CCCCO1` (stereo not drawn), the TGI with MDA-N, in the assay on CCRF-CEM leukemia, in the assay on M14 melanoma, in the assay on HCC-2998 colon, with MDA-MB-231 breast and in the assay on MOLT-4 leukemia was over 100 µM throughout. Moreover, the TGI with UO-31 renal, in the assay with BT-549 breast, with OVCAR-3 ovarian, in the assay with IGROV1 ovarian and in the assay with CAKI-1 renal was over 100 µM throughout.
As to `CCOC(=O)C(C)c1nc2cc(F)c(F)cc2[nH]c1=O` (stereo not drawn), the TGI with MDA-N, in the assay with SF-539 CNS, with CCRF-CEM leukemia, in the assay with M14 melanoma, in the assay with HCC-2998 colon and with MDA-MB-231 breast was over 100 µM each time. The TGI with MOLT-4 leukemia, in the assay with UO-31 renal, in the assay on BT-549 breast, in the assay with OVCAR-3 ovarian and with CAKI-1 renal was over 100 µM throughout.
In the case of `CC(C)=CCC[C@@H](C)C1=C(O)C(N[C@H](C)c2ccccc2)=C(C)C(=O)C1=O`, the TGI with MDA-N was 44.2 µM; with SF-539 CNS, 10.2 µM; in the assay with M14 melanoma, over 31.7 µM; with HCC-2998 colon, 31.3 µM; in the assay on MDA-MB-231 breast it was 35.6 µM; with MOLT-4 leukemia, over 30.1 µM. Moreover, the TGI with UO-31 renal was 38.9 µM; in the assay with BT-549 breast, 67 µM; in the assay with OVCAR-3 ovarian it was over 100 µM; with IGROV1 ovarian, over 36.2 µM; with CAKI-1 renal, 46.9 µM.
On to `c1ccc(C(Oc2noc3ccccc23)c2ccccc2)cc1`, for which the TGI was 67.2 µM in the assay on MDA-N; 49.7 µM with CCRF-CEM leukemia; 63.5 µM in the assay with M14 melanoma; 44.7 µM in the assay on HCC-2998 colon; over 100 µM in the assay on MDA-MB-231 breast; 71.7 µM with MOLT-4 leukemia. In addition, the TGI in the assay on UO-31 renal is over 100 µM; in the assay with BT-549 breast it was 96.4 µM; with OVCAR-3 ovarian it was over 100 µM; in the assay on IGROV1 ovarian it was over 100 µM; with CAKI-1 renal, over 100 µM.
As to `CN(C)S(=O)(=O)c1ccc2[nH]c(O)c(C3=Nc4ccccc4C3=O)c2c1`, the TGI in the assay on MDA-N was over 100 µM; with CCRF-CEM leukemia, over 100 µM; in the assay with M14 melanoma, over 100 µM; in the assay on HCC-2998 colon, over 100 µM; in the assay with MDA-MB-231 breast, 52.3 µM; in the assay on MOLT-4 leukemia, 36.2 µM. For the same compound, the TGI in the assay with UO-31 renal was over 100 µM; in the assay on BT-549 breast it was 28.9 µM; with OVCAR-3 ovarian it was over 100 µM; in the assay on IGROV1 ovarian it was 27.4 µM; with CAKI-1 renal, over 100 µM.
